# Test: Stability of amorphous rifaximin on storage, followed by PXRD spectroscopy
# Type: physicochemical
# Details: as indicated by the PXRD spectroscopy
structure (smiles),measurement,setting,value
"CO[C@H]1/C=C/O[C@@]2(C)Oc3c(C)c(O)c4c(O)c(c5c(nc6cc(C)ccn65)c4c3C2=O)NC(=O)/C(C)=C\C=C\[C@H](C)[C@H](O)[C@@H](C)[C@@H](O)[C@@H](C)[C@H](OC(C)=O)[C@@H]1C [amorphous rifaximin, (2S,16Z,18E,20S,21S,22R,23R,24R,25S,26S,27S,28E)-5,6,21,23,25-pentahydroxy-27-methoxy-2,4,11,16,20,22,24,26-octamethyl-2,7-(epoxypentadeca-[1,11,13]trienimino)benzofuro[4,5-e]pyrido[1,2-α]-benzimidazole-1,15(2H)-dione, 25-acetate]",effect of external parameters such as ambient humidity,ambient humidity,unaffected
same,chemical and polymorphic stability on storage,on storage,very stable chemically and polymorphically on storage
